Laboratory results as given in ChEMBL document CHEMBL5512695, “Discovery of N-Substituted Acetamide Derivatives as Promising P2Y14R Antagonists Using Molecular Hybridization Based on Crystallographic Overlay” (J Med Chem, 2024).

Key:
P2Y purinoceptor 14 = target: T1, P2Y purinoceptor 14 (Homo sapiens, UniProt Q15391); test: Antagonist activity at human P2Y14R stably expressed in HEK293 cells assessed as inhibition of forskolin-[…] cAMP production incubated for 30 mins by cAMP-Glo assay; assay type: functional, cell-based
T1 sequence (Q15391 whole entry): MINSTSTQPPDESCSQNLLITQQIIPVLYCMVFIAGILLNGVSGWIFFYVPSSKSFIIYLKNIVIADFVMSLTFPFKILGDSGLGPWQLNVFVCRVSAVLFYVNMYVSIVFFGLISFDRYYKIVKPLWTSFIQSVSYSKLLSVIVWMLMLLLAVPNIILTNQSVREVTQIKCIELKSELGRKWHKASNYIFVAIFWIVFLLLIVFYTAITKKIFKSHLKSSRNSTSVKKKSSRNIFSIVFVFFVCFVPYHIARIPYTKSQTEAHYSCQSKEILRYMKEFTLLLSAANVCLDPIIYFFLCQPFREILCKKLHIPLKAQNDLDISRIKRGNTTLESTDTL

[1] = target: T2, P2Y purinoceptor 14 (Homo sapiens) (UniProt Q15391); details: time 30.0 min
T2 sequence (whole entry): T1 sequence (Q15391 whole entry)

[2] = Stability in human liver microsomes assessed as half life measured for 45 mins by LC-MS/MS analysis; assay type: ADME, Microsome
[3] = Cmax in SD […] at 10 mg/kg, iv measured for 24 hrs; assay type: ADME, organism-based; details: in vivo
P2Y purinoceptor 6 = P2Y purinoceptor 6 (Homo sapiens, UniProt Q15077); test: Inhibition of human P2Y6R stably expressed in UDP-stimulated HEK293 cells incubated for 0.5 hrs by IP3 production assay; assay type: functional, cell-based
Chain of P2Y purinoceptor 6 (Q15077 whole entry): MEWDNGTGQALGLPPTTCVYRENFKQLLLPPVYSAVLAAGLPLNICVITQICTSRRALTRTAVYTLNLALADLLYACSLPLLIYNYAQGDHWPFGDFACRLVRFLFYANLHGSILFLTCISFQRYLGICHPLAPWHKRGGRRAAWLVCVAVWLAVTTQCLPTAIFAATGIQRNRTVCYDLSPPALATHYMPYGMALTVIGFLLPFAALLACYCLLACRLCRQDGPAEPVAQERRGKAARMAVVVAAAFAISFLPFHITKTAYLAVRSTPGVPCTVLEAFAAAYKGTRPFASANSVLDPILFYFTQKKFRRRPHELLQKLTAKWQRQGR

Cytochrome P450 3A4 = Cytochrome P450 3A4 (Homo sapiens, UniProt P08684); test: Inhibition of CYP3A4 in human liver microsomes using midazolam as substrate preincubated for 10 mins followed by substrate addition measured after 30 mins by LC/MS analysis; assay type: ADME, Microsome
Chain of Cytochrome P450 3A4 (P08684 whole entry): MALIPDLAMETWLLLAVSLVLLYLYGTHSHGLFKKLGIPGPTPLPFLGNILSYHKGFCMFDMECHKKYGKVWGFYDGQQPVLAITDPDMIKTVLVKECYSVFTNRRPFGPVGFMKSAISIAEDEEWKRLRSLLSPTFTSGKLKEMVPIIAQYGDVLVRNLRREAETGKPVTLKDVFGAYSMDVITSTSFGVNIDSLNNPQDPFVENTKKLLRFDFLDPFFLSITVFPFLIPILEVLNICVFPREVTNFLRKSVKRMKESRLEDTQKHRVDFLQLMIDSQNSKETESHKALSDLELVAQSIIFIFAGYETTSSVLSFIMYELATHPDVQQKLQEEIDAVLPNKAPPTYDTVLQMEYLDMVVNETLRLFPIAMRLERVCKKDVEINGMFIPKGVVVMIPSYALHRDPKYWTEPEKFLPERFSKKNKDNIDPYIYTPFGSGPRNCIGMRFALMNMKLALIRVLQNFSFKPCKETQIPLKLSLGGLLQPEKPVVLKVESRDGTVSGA

Cytochrome P450 2C19 = Cytochrome P450 2C19 (Homo sapiens, UniProt P33261); test: Inhibition of CYP2C19 in human liver microsomes using S-mephenytoin as substrate preincubated for 10 mins followed by substrate addition measured after 30 mins by LC/MS analysis; assay type: ADME, Microsome
Chain of Cytochrome P450 2C19 (P33261 whole entry): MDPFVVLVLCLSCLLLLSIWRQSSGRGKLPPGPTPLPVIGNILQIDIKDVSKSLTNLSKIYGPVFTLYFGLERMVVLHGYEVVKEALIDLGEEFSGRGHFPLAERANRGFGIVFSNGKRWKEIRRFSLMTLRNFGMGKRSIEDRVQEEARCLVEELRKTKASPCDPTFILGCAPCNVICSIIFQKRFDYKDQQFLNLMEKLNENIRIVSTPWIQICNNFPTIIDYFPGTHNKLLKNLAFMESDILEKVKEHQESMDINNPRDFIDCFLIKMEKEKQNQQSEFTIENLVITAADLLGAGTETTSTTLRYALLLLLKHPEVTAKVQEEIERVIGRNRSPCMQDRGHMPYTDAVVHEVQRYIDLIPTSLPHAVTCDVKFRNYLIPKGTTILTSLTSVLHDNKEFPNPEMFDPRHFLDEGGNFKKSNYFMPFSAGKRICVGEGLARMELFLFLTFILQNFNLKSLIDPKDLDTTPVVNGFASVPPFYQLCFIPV

[4] = AUC (0 to 24 hrs) in SD […] at 10 mg/kg, iv; assay type: ADME, organism-based; details: in vivo
[5] = Oral bioavailability in SD […] at 20 mg/kg measured for 24 hrs; assay type: ADME, organism-based; details: in vivo
[6] = Tmax in SD […] at 20 mg/kg, po measured for 24 hrs; assay type: ADME, organism-based; details: in vivo
P2Y purinoceptor 12 = P2Y purinoceptor 12 (Homo sapiens, UniProt Q9H244); test: Inhibition of human P2Y12R stably expressed in 2-MeSADP -stimulated HEK293 cells incubated for 0.5 hrs by cAMP production assay; assay type: functional, cell-based
Chain of P2Y purinoceptor 12 (Q9H244 whole entry): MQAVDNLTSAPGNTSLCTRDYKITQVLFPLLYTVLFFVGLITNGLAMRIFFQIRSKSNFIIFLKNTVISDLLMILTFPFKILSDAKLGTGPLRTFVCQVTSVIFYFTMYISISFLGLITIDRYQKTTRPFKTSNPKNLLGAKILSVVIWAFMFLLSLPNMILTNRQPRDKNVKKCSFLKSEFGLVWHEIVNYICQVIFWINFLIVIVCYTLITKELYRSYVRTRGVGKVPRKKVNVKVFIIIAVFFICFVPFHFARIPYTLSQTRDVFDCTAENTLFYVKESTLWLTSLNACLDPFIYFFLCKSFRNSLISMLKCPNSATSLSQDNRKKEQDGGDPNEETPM

[7] = target: Voltage-gated inwardly rectifying potassium channel KCNH2 (Homo sapiens, UniProt Q12809); test: Inhibition of hERG expressed in HEK293 by whole cell Q-patch analysis; assay type: toxicity, cell-based
Chain of Voltage-gated inwardly rectifying potassium channel KCNH2 (Q12809 whole entry): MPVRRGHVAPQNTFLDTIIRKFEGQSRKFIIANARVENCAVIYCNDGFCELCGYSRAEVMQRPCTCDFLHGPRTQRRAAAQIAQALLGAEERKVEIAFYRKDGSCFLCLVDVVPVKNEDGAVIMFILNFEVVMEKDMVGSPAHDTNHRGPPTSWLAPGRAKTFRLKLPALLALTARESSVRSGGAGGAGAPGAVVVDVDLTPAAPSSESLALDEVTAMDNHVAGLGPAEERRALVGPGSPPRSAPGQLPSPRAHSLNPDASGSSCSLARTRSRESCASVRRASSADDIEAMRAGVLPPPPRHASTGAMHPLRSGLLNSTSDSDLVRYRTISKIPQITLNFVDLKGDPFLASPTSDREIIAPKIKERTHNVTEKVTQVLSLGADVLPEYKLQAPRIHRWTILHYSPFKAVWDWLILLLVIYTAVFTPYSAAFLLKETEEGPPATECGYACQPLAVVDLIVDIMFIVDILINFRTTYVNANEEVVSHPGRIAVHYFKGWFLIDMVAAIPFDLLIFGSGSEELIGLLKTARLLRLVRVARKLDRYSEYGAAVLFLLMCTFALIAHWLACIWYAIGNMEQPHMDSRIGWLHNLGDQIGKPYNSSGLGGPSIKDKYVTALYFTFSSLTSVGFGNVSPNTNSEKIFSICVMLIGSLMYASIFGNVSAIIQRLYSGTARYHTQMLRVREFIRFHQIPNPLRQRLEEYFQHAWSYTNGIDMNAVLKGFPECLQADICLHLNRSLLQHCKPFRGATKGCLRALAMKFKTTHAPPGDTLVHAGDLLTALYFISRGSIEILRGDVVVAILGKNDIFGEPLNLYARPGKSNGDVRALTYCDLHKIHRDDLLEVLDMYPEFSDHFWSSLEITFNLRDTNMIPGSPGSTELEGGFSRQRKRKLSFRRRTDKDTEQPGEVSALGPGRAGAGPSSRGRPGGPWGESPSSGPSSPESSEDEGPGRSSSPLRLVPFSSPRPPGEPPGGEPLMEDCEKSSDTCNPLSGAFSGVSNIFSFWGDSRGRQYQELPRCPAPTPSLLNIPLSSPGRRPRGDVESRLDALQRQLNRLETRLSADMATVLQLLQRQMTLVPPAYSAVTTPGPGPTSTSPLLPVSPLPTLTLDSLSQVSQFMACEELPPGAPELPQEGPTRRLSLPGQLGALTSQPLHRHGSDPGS

Cytochrome P450 1A2 = target: T3, Cytochrome P450 1A2 (Homo sapiens, UniProt P05177); test: Inhibition of CYP1A2 in human liver microsomes using phenacetin as substrate preincubated for 10 mins followed by substrate addition measured after 30 mins by LC/MS analysis; assay type: ADME, Microsome
T3 sequence (P05177 whole entry): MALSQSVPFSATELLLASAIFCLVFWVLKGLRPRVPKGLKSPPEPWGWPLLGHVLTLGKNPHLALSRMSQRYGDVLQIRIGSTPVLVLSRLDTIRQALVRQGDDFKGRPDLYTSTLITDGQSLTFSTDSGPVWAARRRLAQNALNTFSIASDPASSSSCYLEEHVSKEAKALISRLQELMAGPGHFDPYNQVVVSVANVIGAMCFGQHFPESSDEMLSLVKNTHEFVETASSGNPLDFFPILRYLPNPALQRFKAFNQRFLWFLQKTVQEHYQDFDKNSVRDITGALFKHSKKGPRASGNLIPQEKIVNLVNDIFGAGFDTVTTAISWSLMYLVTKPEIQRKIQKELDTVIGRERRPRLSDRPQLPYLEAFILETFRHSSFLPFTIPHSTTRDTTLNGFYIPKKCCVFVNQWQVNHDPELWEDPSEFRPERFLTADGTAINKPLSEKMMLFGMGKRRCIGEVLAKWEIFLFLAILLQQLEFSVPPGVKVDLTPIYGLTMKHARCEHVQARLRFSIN

[8] = Half life in SD […] at 10 mg/kg, iv measured for 24 hrs; assay type: ADME, organism-based; details: in vivo
[9] = Clearance in SD […] at 10 mg/kg, iv measured for 24 hrs; assay type: ADME, organism-based; details: in vivo
HEK-293T = test: Cytotoxicity against MSU/LPS-stimulated HEK293T cells assessed as decrease in cell viability at 256 uM incubated for 24 hrs by SRB assay; assay type: toxicity, cell-based; details: human
[10] = Stability in SIF assessed as half life; assay type: ADME
[11] = Cmax in SD […] at 20 mg/kg, po measured for 24 hrs; assay type: ADME, organism-based; details: in vivo
HUVEC = test: Cytotoxicity against MSU/LPS-stimulated HUVEC cells assessed as decrease in cell viability at 256 uM incubated for 24 hrs by SRB assay; assay type: toxicity, cell-based; details: human
[12] = Clearance in SD […] at 20 mg/kg, po measured for 24 hrs; assay type: ADME, organism-based; details: in vivo
[13] = Tmax in SD […] at 10 mg/kg, iv measured for 24 hrs; assay type: ADME, organism-based; details: in vivo
Cytochrome P450 2C9 = Cytochrome P450 2C9 (Homo sapiens, UniProt P11712); test: Inhibition of CYP2C9 in human liver microsomes using diclofenac as substrate preincubated for 10 mins followed by substrate addition measured after 30 mins by LC/MS analysis; assay type: ADME, Microsome
Chain of Cytochrome P450 2C9 (P11712 whole entry): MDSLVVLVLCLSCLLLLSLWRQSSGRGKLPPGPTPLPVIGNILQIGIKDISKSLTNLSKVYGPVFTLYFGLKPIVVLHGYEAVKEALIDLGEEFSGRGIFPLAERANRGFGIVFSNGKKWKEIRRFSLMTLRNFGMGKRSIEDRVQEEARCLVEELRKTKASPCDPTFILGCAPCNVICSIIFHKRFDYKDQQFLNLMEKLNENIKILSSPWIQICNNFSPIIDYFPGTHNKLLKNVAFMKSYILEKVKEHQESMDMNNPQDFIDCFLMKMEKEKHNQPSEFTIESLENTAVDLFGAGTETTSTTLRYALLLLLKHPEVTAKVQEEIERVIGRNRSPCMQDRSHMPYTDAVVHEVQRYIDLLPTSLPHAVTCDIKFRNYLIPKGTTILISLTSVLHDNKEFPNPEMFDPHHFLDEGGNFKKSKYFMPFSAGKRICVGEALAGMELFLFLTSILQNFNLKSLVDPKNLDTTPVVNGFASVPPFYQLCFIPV

Cytochrome P450 2D6 = Cytochrome P450 2D6 (Homo sapiens, UniProt P10635); test: Inhibition of CYP2D6 in human liver microsomes using dextromethorphan as substrate preincubated for 10 mins followed by substrate addition measured after 30 mins by LC/MS analysis; assay type: ADME, Microsome
Chain of Cytochrome P450 2D6 (P10635 whole entry): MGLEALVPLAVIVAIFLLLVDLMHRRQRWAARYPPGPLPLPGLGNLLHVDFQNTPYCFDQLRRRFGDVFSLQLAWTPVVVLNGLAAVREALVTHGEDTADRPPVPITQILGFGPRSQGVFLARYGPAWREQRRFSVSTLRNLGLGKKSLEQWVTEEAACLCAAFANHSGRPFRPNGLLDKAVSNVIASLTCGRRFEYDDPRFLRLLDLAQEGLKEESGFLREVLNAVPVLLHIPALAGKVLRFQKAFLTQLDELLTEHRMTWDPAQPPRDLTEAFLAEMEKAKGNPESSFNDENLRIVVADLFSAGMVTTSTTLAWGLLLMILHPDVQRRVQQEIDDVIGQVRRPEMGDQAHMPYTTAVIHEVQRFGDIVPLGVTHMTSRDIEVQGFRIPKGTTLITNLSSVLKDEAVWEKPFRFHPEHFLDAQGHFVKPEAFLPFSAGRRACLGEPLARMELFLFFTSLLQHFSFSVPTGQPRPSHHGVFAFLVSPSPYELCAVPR

[14] = Stability in SGF assessed as half life; assay type: ADME
[15] = Half life in SD […] at 20 mg/kg, po measured for 24 hrs; assay type: ADME, organism-based; details: in vivo
[16] = AUC (0 to 24 hrs) in SD […] at 20 mg/kg, po; assay type: ADME, organism-based; details: in vivo
[17] = HEK293, filed as antagonist, dose 100.0 nM

Q: Which IC50 (P2Y purinoceptor 14) does the source give for O=Cc1ccc(OCC(=O)Nc2ccc3nc[nH]c3c2)cc1 here?
A: Its IC50 is 0.0013 µM.

Q: And the inhibition [1, 17]?
A: Its inhibition is 95.2%.

Q: For O=Cc1ccc(OCC(=O)Nc2ccc3cccnc3c2)cc1, which inhibition ([1]; HEK293, dose 100.0 nM) is on record?
A: Its inhibition is 17.6%.

Q: Which inhibition ([1]; HEK293, dose 100.0 nM) does the source give for O=C(COc1ccc(C(F)(F)F)cc1)Nc1ccc2cccnc2c1 here?
A: Its inhibition is 38.3%.

Q: Which inhibition [1, 17] does the source give for Cc1ccc(OCC(=O)Nc2ccc3cc[nH]c3c2)cc1 here?
A: The inhibition was 48.3%.

Q: Which inhibition ([1]; HEK293, dose 100.0 nM) does the source give for Cc1ccc(OCC(=O)Nc2ccc3ncsc3c2)cc1 here?
A: Its inhibition is 17.9%.

Q: Which inhibition ([1]; HEK293, dose 100.0 nM) does the source give for CC(C)c1ccc(OCC(=O)Nc2ccc3nc[nH]c3c2)cc1 here?
A: The inhibition was 21.8%.

Q: With COc1ccc(OCC(=O)Nc2ccc3nc[nH]c3c2)cc1 as the compound, how does the inhibition ([1]; HEK293, dose 100.0 nM) read?
A: The inhibition was 10.2%.

Q: With O=C(COc1ccc(CO)cc1)Nc1ccc2cccnc2c1 as the compound, how does the inhibition ([1]; HEK293, dose 100.0 nM) read?
A: Its inhibition is 16.3%.

Q: Which inhibition ([1]; HEK293, dose 100.0 nM) does the source give for Cc1ccc(OCC(=O)Nc2ccc3cn[nH]c3c2)cc1 here?
A: Its inhibition is 11.3%.

Q: With Cc1ccc(OCC(=O)Nc2ccc3sccc3c2)cc1 as the compound, how does the inhibition [1, 17] read?
A: Its inhibition is 41.3%.

Q: For O=C(COc1ccc(Cl)cc1)Nc1ccc2cccnc2c1, which inhibition ([1]; HEK293, dose 100.0 nM) is on record?
A: The inhibition was 12.1%.

Q: With O=C(COc1ccc(Br)cc1)Nc1ccc2cccnc2c1 as the compound, how does the inhibition ([1]; HEK293, dose 100.0 nM) read?
A: The inhibition was 15.2%.

Q: For Cc1ccc(OCC(=O)Nc2ccc3ncoc3c2)cc1, which inhibition ([1]; HEK293, dose 100.0 nM) is on record?
A: Its inhibition is 32%.

Q: With O=C(COc1ccc(Br)cc1)Nc1ccc2nc[nH]c2c1 as the compound, how does the half-life [2] read?
A: Its half-life is 3.27 h.

Q: What about the Cmax [3] of the same compound?
A: The Cmax was 1530 ng/mL.

Q: And the IC50 (P2Y purinoceptor 6)?
A: The IC50 was 89.7 µM.

Q: What about the IC50 (Cytochrome P450 3A4) of the same compound?
A: The IC50 was 19.6 µM.

Q: And the IC50 (Cytochrome P450 2C19)?
A: The IC50 was > 50 µM.

Q: What about the AUC [4] of the same compound?
A: Its AUC is 1765 µg/L/h.

Q: What about the bioavailability [5] of the same compound?
A: Its bioavailability is 75%.

Q: What about the Tmax [6] of the same compound?
A: Its Tmax is 0.533 h.

Q: And the IC50 (P2Y purinoceptor 12)?
A: The IC50 was > 100 µM.

Q: What about the IC50 [7] of the same compound?
A: Its IC50 is > 50 µM.

Q: And the IC50 (Cytochrome P450 1A2)?
A: Its IC50 is > 50 µM.

Q: What about the half-life [8] of the same compound?
A: The half-life was 7.6 h.

Q: And the clearance [9]?
A: The clearance was 3.5 mL/min/kg.

Q: And the Activity (HEK-293T)?
A: Its Activity is “Non-Toxic”.

Q: And the half-life [10]?
A: Its half-life is > 5 h.

Q: And the Cmax [11]?
A: Its Cmax is 2900 ng/mL.

Q: And the Activity (HUVEC)?
A: The Activity was “Non-Toxic”.

Q: What about the CL/F [12] of the same compound?
A: The CL/F was 14.8 mL/min/kg.

Q: What about the Tmax [13] of the same compound?
A: Its Tmax is 0.3 h.

Q: What about the IC50 (Cytochrome P450 2C9) of the same compound?
A: The IC50 was > 50 µM.

Q: What about the IC50 (Cytochrome P450 2D6) of the same compound?
A: Its IC50 is > 50 µM.

Q: What about the half-life [14] of the same compound?
A: Its half-life is > 50 h.

Q: What about the half-life [15] of the same compound?
A: The half-life was 12.6 h.

Q: And the AUC [16]?
A: The AUC was 2845 µg/L/h.
